Results from patent publication US20230416221A1, “DIHYDROISOQUINOLINONE AND ISOINDOLINONE DERIVATIVES AND USES THEREOF” (HEFEI INSTITUTES OF PHYSICAL SCIENCE, CHINESE ACADEMY OF …, priority 2020, published 2023).
pIC50: −log10 of the molar value. Like-named read-outs stand apart in the source and are kept apart here.

Key:
[1] = system: acute myeloid leukemia cell line MOLM13; experiment: Growth of cancer cells, Cell Titer-Glo GI50, MOLM13; assay type: cell-based
[2] = system: acute myeloid leukemia cell line MOLM14; experiment: Growth of cancer cells, Cell Titer-Glo GI50, MOLM14; assay type: cell-based; settings: read-out: GI50 MOLM 14
CDK9/CyclinT1 protein = CDK9/CyclinT1 protein (Homo sapiens (Human), UniProt P50750); experiment: Enzyme activity assay of CDK9 protein inhibition in vitro, CDK9/CyclinT1
[3] = system: acute myeloid leukemia cell line MV4-11; experiment: Growth of cancer cells, Cell Titer-Glo GI50, MV4-11; settings: read-out: GI50 MV4-11
[4] = system: human chronic myeloid leukemia cell K562; experiment: Growth of cancer cells, Cell Titer-Glo GI50, K562; assay type: cell-based; settings: read-out: GI50 K562
CDK9 = CDK9 (Homo sapiens (Human), UniProt P50750); experiment: Binding activity of compound and CDK9, split luciferase system (C37-CL / CDK9-NL) in HEK-293T cells; assay type: cell-based
From the text: The plasmid of split luciferase system was constructed by molecular cloning technology. The N-terminal domain (NLuc) and C-terminal domain (CLuc) of luciferase were respectively cloned and inserted into the vector PCDNA3 to construct NLuc-PCDNA3 and CLuc-PCDNA3 vectors, and the polyclonal sites were reserved at both ends of the sequence. Then CDC37 and CDK9 were cloned into the corresponding vectors to construct C37-CL and CDK9-NL vectors. C37-CL plasmid sequence is shown in SEQ ID NO. 1. CDK9-NL plasmid sequence is shown in SEQ ID NO. 2.
The mixed transfection complex was added to the 10 cm cell culture dish and cultured at 37° C. and 5% CO2 for 24 hours. […] After counting, the transfected cells were placed in a 96-well white Corning cell culture plate (purchased from Corning, U.S.) with 100 μL, 5000 cells/well. After 12 hours, the medium was removed from the 96-well plate and 100 μL culture medium containing corresponding concentration of the testing compound was added, which was cultured continuously for 12 hours. After 12 hours, 20 μL Luciferase-Glo (purchased from Promega, U.S.) testing reagent was added to each well. After mixing, the […] value was detected using a microplate reader.

[5] = system: human ovarian granulosa tumor cell COV434; experiment: Growth of cancer cells, Cell Titer-Glo GI50, COV434; assay type: cell-based; settings: Homo sapiens, COV434, 72 h, read-out: GI50 COV434
[6] = system: histiocytic lymphoma U-937; experiment: Growth of cancer cells, Cell Titer-Glo GI50, U937; assay type: cell-based; settings: Homo sapiens, read-out: GI50 U937
[7] = system: acute myeloid leukemia cell line OCI-AML-3; experiment: Growth of cancer cells, Cell Titer-Glo GI50, OCI-AML-3; assay type: cell-based; settings: Homo sapiens, read-out: GI50 AML3
[8] = system: MOLM13 drug resistant strain MOLM13 BR1; experiment: Growth of drug resistant strain MOLM13 BR1, Cell Titer-Glo GI50; assay type: cell-based; settings: 72 hours
[9] = Homo sapiens, MOLM-13, incubated for 72 hours, Cell Titer-Glo, Table 1, read-out: GI50 MOLM 13
[10] = Homo sapiens, MOLM-14, incubated for 72 hours, Cell Titer-Glo
[11] = Homo sapiens, K562, incubated for 72 hours, Cell Titer-Glo
[12] = U-937, incubated for 72 hours, Cell Titer-Glo
[13] = incubated for 72 hours, Cell Titer-Glo
[14] = Homo sapiens, MOLM-13, incubated for 72 hours, Cell Titer-Glo, Table 2, read-out: GI50 MOLM13
[15] = Homo sapiens, MOLM-13, BAY1251152-resistant MOLM13 strain
[16] = Homo sapiens, MOLM-13, 72 h, read-out: GI50 MOLM 13

Sequence of CDK9/CyclinT1 protein (P50750 whole entry): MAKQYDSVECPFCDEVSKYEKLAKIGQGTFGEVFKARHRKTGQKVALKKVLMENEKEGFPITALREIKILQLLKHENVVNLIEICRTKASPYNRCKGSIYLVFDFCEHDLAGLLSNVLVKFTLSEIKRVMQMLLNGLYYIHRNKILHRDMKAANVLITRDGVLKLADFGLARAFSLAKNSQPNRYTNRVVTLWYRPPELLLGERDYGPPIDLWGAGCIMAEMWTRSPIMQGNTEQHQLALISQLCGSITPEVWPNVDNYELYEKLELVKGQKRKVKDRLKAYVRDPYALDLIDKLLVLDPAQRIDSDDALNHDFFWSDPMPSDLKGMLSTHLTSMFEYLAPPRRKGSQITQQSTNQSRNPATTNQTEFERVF
Sequence of CDK9/CyclinT1 protein (O60563 whole entry partner): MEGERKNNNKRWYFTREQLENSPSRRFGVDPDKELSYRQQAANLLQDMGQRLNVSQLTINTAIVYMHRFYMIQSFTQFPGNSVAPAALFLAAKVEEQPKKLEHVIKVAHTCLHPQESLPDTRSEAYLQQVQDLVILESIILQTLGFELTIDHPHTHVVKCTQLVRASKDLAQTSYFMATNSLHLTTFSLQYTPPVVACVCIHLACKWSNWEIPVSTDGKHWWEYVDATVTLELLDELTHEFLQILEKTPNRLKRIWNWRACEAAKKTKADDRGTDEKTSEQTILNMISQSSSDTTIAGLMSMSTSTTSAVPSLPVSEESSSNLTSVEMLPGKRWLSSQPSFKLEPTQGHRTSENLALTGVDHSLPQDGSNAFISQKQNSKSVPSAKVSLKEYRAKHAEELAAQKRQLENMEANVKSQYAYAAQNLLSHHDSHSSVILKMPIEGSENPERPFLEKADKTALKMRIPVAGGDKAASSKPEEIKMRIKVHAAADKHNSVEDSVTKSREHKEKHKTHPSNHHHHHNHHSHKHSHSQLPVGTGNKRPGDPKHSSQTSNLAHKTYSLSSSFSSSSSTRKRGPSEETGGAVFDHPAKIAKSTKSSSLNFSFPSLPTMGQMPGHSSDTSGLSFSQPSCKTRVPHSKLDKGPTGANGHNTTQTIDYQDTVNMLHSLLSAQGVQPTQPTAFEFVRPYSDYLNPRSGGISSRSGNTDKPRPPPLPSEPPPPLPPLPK
Sequence of CDK9 (P50750 whole entry, the tested form may be a part): as the sequence (P50750 whole entry) above

Row | GI50 [1, 9] | GI50 [2, 10] | pIC50 (CDK9/CyclinT1 protein) | GI50 ([3]; Homo sapiens, MV4-11, 72 h) | GI50 [4, 11] | Structure (SMILES) | also measured
1 | 28 nM | 41 nM | 7.89 |  |  | COCCN[C@H]1CC[C@H](Nc2ncc(Cl)c(-c3ccc4c(c3)C(C)(C)NC4=O)n2)CC1 [Compound 22, 5-(5-chloro-2-(((1r,4r)-4-((2-methoxyethyl)amino)cyclohexyl)amino)pyrimidin-4-yl)-3,3-dimethylisoindoline-1-one] | 
2 | 5 nM | 16 nM |  | 13 nM | 95 nM | CC1(C)CNC(=O)c2ccc(-c3ccnc(Nc4cccc(S(C)(=N)=O)c4)n3)cc21 (stereo not shown) [Compound 38] | 
3 |  |  |  |  |  | CC(=O)N[C@@H]1CCC[C@H](C(=O)Nc2cc(-c3ccc4c(c3)C(C)(C)CNC4=O)c(Cl)cn2)C1 [Compound 96, (1S,3R)-3-acetylamino-N-(5-chloro-4-(4,4-dimethyl-1-oxo-1,2,3,4-tetrahydroisoquinolin-6-yl)pyridin-2-yl)cyclohexyl-1-formamide] | GI50 ([1]; incubated for 72 hours, Cell Titer-Glo, Table 1, read-out: GI50 MOLM 13): 8 nM; GI50 [2, 13]: 17 nM; pIC50 (CDK9/CyclinT1 protein; read-out: CDK9/CyclinT1 Protein activity (IC50)): 9.28; GI50 [3, 13]: 9 nM; GI50 [4, 13]: 72 nM; GI50 ([8]; BAY1251152-resistant MOLM13 strain): 5.6 nM
4 | 30 nM | 96 nM |  |  |  | COc1ccc(Nc2nccc(-c3ccc4c(c3)C(C)(C)CNC4=O)n2)cc1CS(C)(=O)=O [Compound 45, 6-(2-((4-methoxy-3-((methylsulfonyl)methyl)phenyl)amino)pyrimidin-4-yl)-4,4-dimethyl-3,4-dihydroisoquinolin-1(2H)-one] | 
5 |  | 15 nM |  |  |  | CC1(C)NC(=O)c2ccc(-c3nc(Nc4ccc(F)c(CS(C)(=O)=O)c4)ncc3Cl)cc21 [Compound 51, 5-(5-chloro-2-((4-fluoro-3-((methylsulfonyl)methyl)phenyl)amino)pyrimidin-4-yl)-3,3-dimethylisoindoline-1-one] | 
6 | 11 nM | 25 nM | 8.60 | 6.6 nM | 84 nM | CN1CCC(NC(=O)c2cc(Nc3nccc(-c4ccc5c(c4)C(C)(C)CNC5=O)n3)ccc2F)CC1 [Compound 41] | pIC50 (CDK9): 6.94; GI50 [6, 12]: 13 nM; GI50 [7, 13]: 23 nM
7 |  |  | 7.98 |  |  | CC1(C)CNC(=O)c2ccc(-c3ccnc(N[C@H]4CC[C@H](CC(=O)O)CC4)n3)cc21 [Compound 106] | 
8 |  | 10 nM | 9.05 | 34 nM |  | CC1(C)CNC(=O)c2ccc(-c3ccnc(N[C@@H]4CCCN(S(C)(=O)=O)C4)n3)cc21 [Compound 104] | 
9 | 19 nM | 44 nM |  |  |  | CC1(C)CNC(=O)c2ccc(-c3nc(Nc4ccc(F)c(C5(S(C)(=O)=O)CC5)c4)ncc3F)cc21 [Compound 63, 6-(5-fluoro-2-((4-fluoro-3-(1-(methylsulfonyl)cyclopropyl)phenyl)amino)pyrimidin-4-yl)-4,4-dimethyl-3,4-dihydroisoquinolin-1(2H)-one] | 
10 | < 1 nM | < 1 nM |  |  | 26 nM | CN1CCN(c2cc(F)cc(Nc3ncc(F)c(-c4ccc5c(c4)C(C)(C)CNC5=O)n3)c2)CC1 [Compound 73, 6-(5-fluoro-2-((3-fluoro-5-(4-methylpiperazin-1-yl)phenyl)amino)pyrimidin-4-yl)-4,4-dimethyl-3,4-dihydroisoquinolin-1(2H)-one] | GI50 [1, 14]: 1.64 nM; GI50 [8, 15]: 0.345 nM
11 | 33 nM | 110 nM |  |  |  | CN1CCN(c2cc(Nc3ncc(Cl)c(-c4ccc5c(c4)C(C)(C)CNC5=O)n3)ccc2F)CC1 [Compound 75, 6-(5-chloro-2-((4-fluoro-3-(4-methylpiperazin-1-yl)phenyl)amino)pyrimidin-4-yl)-4,4-dimethyl-3,4-dihydroisoquinolin-1(2H)-one] | 
12 |  | 43 nM | 7.82 | 82 nM |  | CC1(C)CNC(=O)c2ccc(-c3ccnc(NC4CCN(S(C)(=O)=O)CC4)n3)cc21 [Compound 105, 4,4-dimethyl-6-(2-((1-(methylsulfonyl)piperidin-4-yl)amino)pyrimidin-4-yl)-3,4-dihydroisoquinolin-1(2H)-one] | 
13 | 35 nM | 59 nM | 7.57 | 57 nM | 942 nM | CN(C)S(=O)(=O)c1cccc(Nc2nccc(-c3ccc4c(c3)C(C)(C)CNC4=O)n2)c1 [Compound 29, 3-((4-(4,4-dimethyl-1-oxo1,2,3,4-tetrahydroisoquinolin-6-yl)pyrimidin-2-yl)amino)-N,N-dimethylbenzenesulfonamide] | GI50 [6, 12]: 186 nM; GI50 [7, 13]: 153 nM
14 | < 1 nM | 5.5 nM | 7.82 |  |  | CN1CCN(c2cc(Nc3ncc(F)c(-c4ccc5c(c4)C(C)(C)CNC5=O)n3)ccc2F)CC1 [Compound 72, 6-(5-fluoro-2-((4-fluoro-3-(4-methylpiperazin-1-yl)phenyl)amino)pyrimidin-4-yl)-4,4-dimethyl-3,4-dihydroisoquinolin-1(2H)-one] | 
15 | 3 nM | 5.8 nM | 8.18 | 1.7 nM | 25 nM | CN1CCN(c2ccc(Nc3nccc(-c4ccc5c(c4)C(C)(C)CNC5=O)n3)cc2)CC1 [Compound 40, 4,4-dimethyl-6-(2-((4-(4-methylpiperazin-1-yl)phenyl)amino)pyrimidin-4-yl)-3,4-dihydroisoquinolin-1(2H)-one] | pIC50 (CDK9): 7.17; GI50 [6, 12]: 4.6 nM; GI50 [7, 13]: 5 nM; GI50 [8, 15]: 4.39 nM
16 | 3.3 nM | 7.2 nM |  |  | 15 nM | CC(C)N1CCN(c2cc(Nc3ncc(F)c(-c4ccc5c(c4)C(C)(C)CNC5=O)n3)ccc2F)CC1 [Compound 80, 6-(5-fluoro-2-((4-fluoro-3-(4-isopropylpiperazin-1-yl)phenyl)amino)pyrimidin-4-yl)-4,4-dimethyl-3,4-dihydroisoquinolin-1(2H)-one] | GI50 [1, 14]: 11.6 nM; GI50 [8, 15]: 12.3 nM

Row | Structure (SMILES) | GI50 [1, 9] | GI50 [2, 10] | pIC50 (CDK9/CyclinT1 protein) | GI50 ([3]; Homo sapiens, MV4-11, 72 h) | GI50 [4, 11] | also measured
17 | CC1(C)CNC(=O)c2ccc(-c3ccnc(Nc4ccc(F)c(NS(C)(=O)=O)c4)n3)cc21 [Compound 34, N-(5-((4-(4,4-dimethyl-1-oxo-1,2,3,4-tetrahydroisoquinolin-6-yl)pyrimidin-2-yl)amino)-2-fluorophenyl)methanesulfamide] | 11 nM |  | 8.21 | 4 nM | 24 nM | pIC50 (CDK9): 7.30; GI50 [5]: 9 nM; GI50 [6, 12]: 7 nM; GI50 [7, 13]: 8 nM
18 | CN1CCC(NC(=O)c2cccc(Nc3nccc(-c4ccc5c(c4)C(C)(C)CNC5=O)n3)c2)CC1 [Compound 33, 3-((4-(4,4-dimethyl-1-oxo-1,2,3,4-tetrahydroisoquinolin-6-yl)pyrimidin-2-yl)amino)-N-(1-methylpiperidin-4-yl)benzamide] | 10 nM |  |  | 6 nM | 77 nM | GI50 [5]: 8 nM; GI50 [6, 12]: 63 nM; GI50 [7, 13]: 48 nM
19 | CC1(C)CNC(=O)c2ccc(-c3ccnc(Nc4ccc(F)c(CS(C)(=O)=O)c4)n3)cc21 [Compound 36, 6-(2-((4-fluoro-3-((methylsulfonyl)methyl)phenyl)amino)pyrimidin-4-yl)-4,4-dimethyl-3,4-dihydroisoquinolin-1(2H)-one] |  |  |  | 3 nM |  | GI50 [1, 16]: < 1 nM; GI50 ([2]; Homo sapiens, MOLM-14, 72 h): 2 nM; GI50 ([4]; Homo sapiens, K562, 72 h): 9 nM
20 | CC1(C)CNC(=O)c2ccc(-c3ccnc(Nc4cccc(CS(C)(=O)=O)c4)n3)cc21 [Compound 28, 4,4-dimethyl-6-(2-((3-((methylsulfonyl)methyl)phenyl)amino)pyrimidin-4-yl)-3,4-dihydroisoquinolin-1(2H)-one] |  |  |  | 2 nM |  | GI50 [1, 16]: 1 nM; GI50 ([2]; Homo sapiens, MOLM-14, 72 h): 2 nM; GI50 ([6]; U-937, 72 h): 2 nM; GI50 ([7]; 72 h): 2 nM; GI50 ([4]; Homo sapiens, K562, 72 h): 10 nM
